According to US6562824B2, “Dihydropyridine soft drugs, and related compositions and methods” (Ortho-McNeil Pharmaceutical, Inc., priority 2000, dated 2003):
pIC50: −log10 of the molar value.

target: T1, Calcium Channel (3H-nitrendipine binding site, heart membranes) (Oryctolagus cuniculus, UniProt P15381); assay: Assay for Inhibition of Nitrendipine Binding (3H-nitrendipine, rabbit heart membranes); conditions: Table 1, Formula Ii compounds, 3H-nitrendipine 0.05-0.50 nM, 90 minutes
T1 construct: from tissue; host or cells: rabbit heart membrane preparation
Method: Female, New Zealand white rabbits (1-2 kg) are sacrificed by cervical dislocation, and the heart is immediately removed, cleaned and chopped into small pieces. The tissue is homogenized in 5× times volume of 0.05M Hepes buffer, pH 7.4. The homogenate is centrifuged at 4000g for 10 minutes, and the supernatant is re-centrifuged at 42,000× g for 90 minutes. The resulting membrane pellet is resuspended (0.7 ml/g weight) in 0.05M Hepes, pH 7.4 and stored at […] until used. Each tube of the binding assay contains ^3H-nitrendipine (0.05-0.50 nM), buffer, membranes (0.10 ml), and test compound in a total volume of 1.0 ml. After 90 minutes at 4≦ C., the bound nitrendipine is separated from the unbound by filtration on Whatman GF/C filters. After rinsing, the filters are dried and counted in a liquid scintillation counter.
Non-specific binding of ^3H-nitrendipine (that amount bound in the presence of excess unlabelled nitrendipine) is subtracted from the total bound to obtain specifically bound radiolabeled nitrendipine. The amount of specifically bound nitrendipine in the presence of a test compound is compared to that amount bound in the absence of a compound. A percent displacement (or inhibition) can then be calculated.

T1 sequence (P15381 whole entry): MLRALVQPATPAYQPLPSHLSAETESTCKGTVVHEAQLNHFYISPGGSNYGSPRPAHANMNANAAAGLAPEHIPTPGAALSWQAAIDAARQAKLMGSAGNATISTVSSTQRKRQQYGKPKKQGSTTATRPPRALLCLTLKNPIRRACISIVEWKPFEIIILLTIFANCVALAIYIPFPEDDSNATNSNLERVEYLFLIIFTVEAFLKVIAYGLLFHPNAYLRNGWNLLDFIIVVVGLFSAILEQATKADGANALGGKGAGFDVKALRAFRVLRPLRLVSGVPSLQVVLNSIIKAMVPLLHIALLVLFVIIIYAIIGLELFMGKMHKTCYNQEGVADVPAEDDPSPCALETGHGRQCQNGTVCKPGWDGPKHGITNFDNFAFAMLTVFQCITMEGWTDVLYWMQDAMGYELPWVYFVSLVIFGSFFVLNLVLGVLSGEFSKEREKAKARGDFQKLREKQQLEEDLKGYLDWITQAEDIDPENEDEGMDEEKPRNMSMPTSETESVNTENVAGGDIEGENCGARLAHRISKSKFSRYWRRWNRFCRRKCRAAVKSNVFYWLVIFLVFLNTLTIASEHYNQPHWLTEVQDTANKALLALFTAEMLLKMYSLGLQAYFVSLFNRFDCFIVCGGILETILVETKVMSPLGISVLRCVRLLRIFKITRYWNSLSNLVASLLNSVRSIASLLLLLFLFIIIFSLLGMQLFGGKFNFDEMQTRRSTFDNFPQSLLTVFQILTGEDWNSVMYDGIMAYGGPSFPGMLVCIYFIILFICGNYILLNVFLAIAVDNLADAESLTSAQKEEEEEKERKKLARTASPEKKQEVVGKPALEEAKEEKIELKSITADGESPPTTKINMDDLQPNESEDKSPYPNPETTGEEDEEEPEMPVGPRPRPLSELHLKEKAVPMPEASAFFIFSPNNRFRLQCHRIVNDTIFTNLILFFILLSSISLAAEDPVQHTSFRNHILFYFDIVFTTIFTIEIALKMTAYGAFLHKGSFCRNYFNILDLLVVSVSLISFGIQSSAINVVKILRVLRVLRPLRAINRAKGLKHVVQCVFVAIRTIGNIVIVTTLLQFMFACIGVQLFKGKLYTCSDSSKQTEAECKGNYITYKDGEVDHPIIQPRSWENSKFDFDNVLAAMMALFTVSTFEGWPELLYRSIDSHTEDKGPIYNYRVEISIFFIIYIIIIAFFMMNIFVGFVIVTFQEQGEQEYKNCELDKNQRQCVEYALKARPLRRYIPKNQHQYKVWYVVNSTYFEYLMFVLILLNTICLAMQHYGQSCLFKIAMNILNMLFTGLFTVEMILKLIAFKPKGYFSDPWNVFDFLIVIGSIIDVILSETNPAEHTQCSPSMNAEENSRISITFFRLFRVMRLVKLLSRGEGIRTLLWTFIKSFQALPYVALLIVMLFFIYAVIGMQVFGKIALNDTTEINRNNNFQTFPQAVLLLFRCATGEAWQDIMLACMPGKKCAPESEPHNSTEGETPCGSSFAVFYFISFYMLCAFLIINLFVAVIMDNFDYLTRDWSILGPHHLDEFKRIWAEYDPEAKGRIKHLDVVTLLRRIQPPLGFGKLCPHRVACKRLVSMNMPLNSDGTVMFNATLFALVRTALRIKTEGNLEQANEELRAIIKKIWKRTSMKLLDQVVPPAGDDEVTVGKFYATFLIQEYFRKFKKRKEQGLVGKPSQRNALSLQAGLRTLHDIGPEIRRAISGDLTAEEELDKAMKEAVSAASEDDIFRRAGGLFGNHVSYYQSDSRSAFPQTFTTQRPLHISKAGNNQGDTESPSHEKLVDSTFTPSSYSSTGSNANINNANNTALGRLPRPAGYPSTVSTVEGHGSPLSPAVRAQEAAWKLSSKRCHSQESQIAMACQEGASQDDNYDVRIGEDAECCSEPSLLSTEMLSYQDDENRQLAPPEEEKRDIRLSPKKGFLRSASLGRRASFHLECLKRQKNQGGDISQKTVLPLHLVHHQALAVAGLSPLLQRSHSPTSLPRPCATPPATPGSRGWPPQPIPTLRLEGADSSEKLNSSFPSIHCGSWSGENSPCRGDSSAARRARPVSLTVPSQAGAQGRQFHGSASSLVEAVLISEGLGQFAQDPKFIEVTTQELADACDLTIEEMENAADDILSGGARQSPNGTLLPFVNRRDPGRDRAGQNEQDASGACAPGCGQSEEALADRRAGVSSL

pIC50 | SMILES
4.29 | CC1=C(C(=O)OCCOC(=O)C(N)CCCCN)C(c2c(F)cccc2Cl)C2=C(CS(=O)(=O)CCS2(=O)=O)N1 (single isomer, unassigned) [Compound 64]
7.32 | CC1=C(C(=O)OCCOC(=O)c2ccc(C(F)(F)F)cc2)C(c2c(F)cccc2Cl)C2=C(CS(=O)(=O)CCS2(=O)=O)N1 (centres unmarked) [Compound 11, 5H-[1,4]dithiepino[6,5-b]pyridine-8-carboxylic acid, 9-(2-chloro-6-fluorophenyl)-2,3,6,9-tetrahydro-7-methyl-, 2-[[4-(trifluoromethyl)benzoyl]oxy]ethyl ester, 1,1,4,4-tetraoxide]
7.32 | CC1=C(C(=O)OCCOC(=O)CCc2ccccc2)C(c2c(F)cccc2Cl)C2=C(CS(=O)(=O)CCS2(=O)=O)N1 (centres unmarked) [Compound 12]
7.21 | CC1=C(C(=O)OCCOC(=O)c2cccc(C#N)c2)C(c2c(F)cccc2Cl)C2=C(CS(=O)(=O)CCS2(=O)=O)N1 (centres unmarked) [Compound 18]
7.16 | COc1ccc(C(=O)OCCOC(=O)C2=C(C)NC3=C(C2c2c(F)cccc2Cl)S(=O)(=O)CCS(=O)(=O)C3)cc1 (centres unmarked) [Compound 20]
7.14 | CC1=C(C(=O)OCc2oc(=O)oc2C)C(c2cccc(Cl)c2Cl)C2=C(CS(=O)(=O)CCS2(=O)=O)N1 (centres unmarked) [Compound 21]
6.76 | CC1=C(C(=O)OCCOC(=O)C(CCCCNC(=O)OCc2ccccc2)NC(=O)OC(C)(C)C)C(c2c(F)cccc2Cl)C2=C(CS(=O)(=O)CCS2(=O)=O)N1 (centres unmarked) [Compound 29]
6.45 | CC1=C(C(=O)OCCOC(=O)C(Cc2ccccc2)NC(=O)c2ccccc2)C(c2c(F)cccc2Cl)C2=C(CS(=O)(=O)CCS2(=O)=O)N1 (centres unmarked) [Compound 38]
6.39 | CC1=C(C(=O)OCCOC(=O)C(NC(=O)OC(C)(C)C)C(C)C)C(c2c(F)cccc2Cl)C2=C(CS(=O)(=O)CCS2(=O)=O)N1 (centres unmarked) [Compound 40]
6.34 | CC1=C(C(=O)OC2CCOC2=O)C(c2cccc(Cl)c2Cl)C2=C(CS(=O)(=O)CCS2(=O)=O)N1 (centres unmarked) [Compound 43]
6.30 | CC1=C(C(=O)OCCOC(=O)c2cccnc2)C(c2c(F)cccc2Cl)C2=C(CS(=O)(=O)CCS2(=O)=O)N1 (centres unmarked) [Compound 44]
6.27 | CC1=C(C(=O)OCCOC(=O)C(Cc2ccccc2)N(C)C)C(c2c(F)cccc2Cl)C2=C(CS(=O)(=O)CCS2(=O)=O)N1 (centres unmarked) [Compound 45]
5.63 | CC1=C(C(=O)OCCOC(=O)C(C)C)C(c2c(F)cccc2Cl)C2=C(CS(=O)(=O)CCS2(=O)=O)N1 (centres unmarked) [Compound 56]
4.71 | CC1=C(C(=O)OCCOC(=O)C2CCOC2=O)C(c2c(F)cccc2Cl)C2=C(CS(=O)(=O)CCS2(=O)=O)N1 (centres unmarked) [Compound 62]
4.31 | CC1=C(C(=O)OCCOC(=O)CCN2CCCCC2)C(c2c(F)cccc2Cl)C2=C(CS(=O)(=O)CCS2(=O)=O)N1 (centres unmarked) [Compound 63]

same assay, conditions: Table 2, Formula Ij compounds, 3H-nitrendipine 0.05-0.50 nM, 90 minutes

pIC50 | SMILES
7.31 | CC1=C(C(=O)OCCOC(=O)c2cccc(C#N)c2)C(c2c(F)cccc2Cl)C2=C(CS(=O)(=O)CCCS2(=O)=O)N1 (centres unmarked) [Compound 68, 2H,6H-[1,5]dithiocino[3,2-b]pyridine-9-carboxylic acid, 10-(2-chloro-6-fluorophenyl)-3,4,7,10-tetrahydro-8-methyl-, 2-[(3-cyanobenzoyl)oxy]ethyl ester, 1,1,5,5-tetraoxide]
7.19 | CC1=C(C(=O)OCCOC(=O)C2CCCCC2)C(c2c(F)cccc2Cl)C2=C(CS(=O)(=O)CCCS2(=O)=O)N1 (centres unmarked) [Compound 70, 2H,6H-[1,5]dithiocino[3,2-b]pyridine-9-carboxylic acid, 10-(2-chloro-6-fluorophenyl)-3,4,7,10-tetrahydro-8-methyl-, 2-[(cyclohexylcarbonyl)oxy]ethyl ester, 1,1,5,5-tetraoxide]
